Consider six compounds from patent US6362219B1 (Council of Scientific and Industrial Research, priority 1999, dated 2002).

Where “and” joins values, the source holds several entries; their conditions need not be identical. Equal entries are not always repeated. Where two headings read alike, the source gives them in different places. Some results are limits rather than exact numbers.

The test system of data set [1] is multi-drug resistant P. yoelii nigeriensis. As to the kind of experiment: Blood schizontocidal activity in Swiss mice by rectal route. The data set is classed as in vivo, Plasmodium yoelii nigeriensis. As to conditions: for Cure-rate Day 30 (%) / Parasitaemia % Day 5 / Parasitaemia % Day 7: in oil; for Parasitaemia % Day 5 / Parasitaemia % Day 7: 8 mice. How it is done:
Test Parasite: Multi-drug resistant Plasmodium yoeli nigerienes (Rodent malaria strian). The P. yoeli nigerienses is a multi-drug resistant strain which is resistant to high oral doses of chloroquine (128 mg/kg×4), amodiaquine (128 mg/kg×4), meperaine (128 mg/kg×4), mefloquine (128 mg/kg×4), quinine (400 mg/kg×4) and halofantrine (32 mg/kg×4). […]. […] For higher doses (15 and 20 mg/kg) the drug was given in divided doses by rectal route. The tail blood smears of the mice were examined periodically after Giemsa staining upto 30 days post-infections.
Drug is dissolved in sterile ground nut oil for adminisitration.

Data set [2] relates to multi-drug resistant strain of P. yoelii nigeriensis. As to the kind of experiment: Blood schizontocidal activity in Swiss mice and baby mice by intramuscular route. As to conditions: day 30. The data set is classed as in vivo, Plasmodium yoelii nigeriensis. The method, then: Test Parasite: Multi-drug resistant Plasmodium yoeli nigerienes (Rodent malaria strian). The P. yoeli nigerienses is a multi-drug resistant strain which is resistant to high oral doses of chloroquine (128 mg/kg×4), amodiaquine (128 mg/kg×4), meperaine (128 mg/kg×4), mefloquine (128 mg/kg×4), quinine (400 mg/kg×4) and halofantrine (32 mg/kg×4). […]. […] The tail blood smears of the mice were examined periodically after Giemsa staining upto 30 days post-infection.
Drug treatment was started on day 0 (ie day of infection). Mice showing negative blood slide upto day 30 were considered as cured.

The test system of data set [3] is multi-drug resistant P. yoelii nigeriensis. The data set is described as follows: Blood schizontocidal activity in Swiss mice by oral route. As to conditions: oral in oil, 30 mg/kg × 5, mice 25 ± 1 g. The data set is classed as in vivo, Plasmodium yoelii nigeriensis. How it is done:
Test Parasite: Multi-drug resistant Plasmodium yoeli nigerienes (Rodent malaria strian). The P. yoeli nigerienses is a multi-drug resistant strain which is resistant to high oral doses of chloroquine (128 mg/kg×4), amodiaquine (128 mg/kg×4), meperaine (128 mg/kg×4), mefloquine (128 mg/kg×4), quinine (400 mg/kg×4) and halofantrine (32 mg/kg×4). […].

Data set [4] in a line: Safety in healthy mice. The format is in vivo. Particulars: 30 mg/kg DHA × 5, 20 ± 1 g mice.
For data set [5] the following is noted: oral tablets, 60 mg dose, cited from earlier work.
For data set [6] the following is noted: oral artesunate; 95/Cl 387-9410, range 79-1394; cited from earlier work.
For data set [7] the following is noted: cited from earlier work.
For data set [8] the following is noted: cited from earlier work. The source holds these as a separate data set.
The conditions of data set [9]: cited from earlier work. This is another data set of the same source.
The conditions of data set [10]: cited from earlier work; for maximum plasma concentration by im route: in ng/mL.
For data set [11] the following is noted: aqueous solution at pH 7-8; cited from earlier work.
Data set [12] has as its system P. falcipurum. As to conditions: rectal suppository; cited from earlier work.
Data set [13] concerns malaria. As to conditions: cited from earlier work.
The test system of data set [14] is malaria. As to conditions: cited from earlier work. The source holds these as a separate data set.
For data set [15] the following is noted: rabbit, in vivo; cited from earlier work.
The conditions of data set [16]: dog, in vivo; cited from earlier work.
Where [17] appears, read: 5 mg/kg × 7, Swiss mice 20 ± 1 g.
Setting [18] is: 20 mg/kg × 7, Swiss mice 20 ± 1 g.
The mark [19] stands for this setting: following oral artesunate administration.

With `C[C@H]1[C@@H](O)O[C@@H]2O[C@@]3(C)CC[C@H]4[C@H](C)CC[C@@H]1[C@@]24OO3` [DHA, Dihydroartemisinin], in data set [1] (5 mg/kg × 7, of 8 mice), the “number of mice negative (-ve) Day 5” value is recorded as “(8) 4-ve” and the “number of mice negative (-ve) Day 7” value is “(8) 4-ve”. In [1] (setting [17]), the “Cure-rate Day 30 (%)” value amounted to 25%, the “Parasitaemia % Day 5” value is given as 0.83 ± 1.31% and the “Parasitaemia % Day 7” value is given as 1.12 ± 1.55%. Besides, in data set [1] (setting [18]), the “Cure-rate Day 30 (%)” value was 87%, the “Parasitaemia % Day 5” value worked out at 0.0% and the “Parasitaemia % Day 7” value stood at 0.0%. In addition, in data set [2] (Expt. I, IM in oil, 5 mg/kg × 5, mice 20 ± 1 g), the “Cure rate (%)” value is reported as 100% (8/8). Moreover, in data set [2] (Expt. II, im in oil, 5 mg/kg × 5, mice 20 ± 1 g), the “Cure rate (%)” value is given as 100% (8/8). The “Cure rate (%)” value in [2] (Expt. II, im in oil, 10 mg/kg × 5, mice 20 ± 1 g) is reported as 100% (8/8). Also, the “Cure rate (%)” value in data set [2] (Expt. III, im in oil, 5 mg/kg × 5, baby mice 12 ± 1 g) is 100% (9/9). In data set [3], the “Cure rate (%) Day 30” value stood at 100%. Moreover, the “Safety in Healthy mice” value in data set [4] was “Safe 8/8”. Besides, the “peak plasma levels of dihydroartemisinin” value in [5] (four subjects) was 0.26 to 0.71 µg/mL. For the same compound, in [5] (six cases), the tolerability result was “well tolerated in 2 subjects while 4 subjects experienced mild headache, nausea or vomiting”. Besides, in data set [5], the “complete excretion by” value was no more than 6 h and the elimination half-life is 42.6 to 87 min. In addition, the “peak plasma concentration of DHA” value in data set [6] is 664 ng of DHA/ml. Moreover, in data set [7] (im route), the “DHA activity AUC” value is 3445 n Mlo l^−1 h and the “duration of activity due to DHA” value was “over 30 h”. Besides, in [7] (oral dose), the “duration of effective level” value is reported as no more than 10 h. Further, in data set [8] (oral, rats), the Elimination half life was 296 ± 43.8 min and the “area under plasma concentration time curve” value is 9615±56 ngh ml^−1. For the same compound, in [9] (setting [19]), the “DHA level compared to that of artesunate” value was 5 fold and the maximum plasma level was 0.57 ± 0.18 µg/mL. For the same compound, the “maximum plasma concentration by im route” value in [10] (rats) is reported as 1579±443. For the same compound, in [10] (rats, single IM dose), the “Absorption 0-8 h” value was 85.4±12.1% and 85.4%; the Area under plasma concentration was 2720 ng·h/mL; the Elimination half life is 266 ± 16.2 min; the Mean absorption time is 0.21 h. Moreover, in data set [10] (rats, single IM dose), the “Time of maximum plasma Concentration” value was 17.5 min and the “maximum plasma concentration” value is 1579 ng/mL.

Consider `C[C@H]1[C@H](OC(=O)CCC(=O)[O-])O[C@@H]2O[C@@]3(C)CC[C@H]4[C@H](C)CC[C@@H]1[C@@]24OO3.[Na+]` [sodium artesunate], for which the “time of hydrolysis to DHA” value in data set [11] is no more than 1 h.

In the case of `C[C@@H]1CC[C@H]2[C@@H](C)C(=O)O[C@@H]3O[C@@]4(C)CC[C@@H]1[C@]32OO4` [artemisinin], the recovery from coma in [12] is on record as 24 (18-30) h. The cure rate in [13] (high doses upto 5.0 g) is given as 55%.

`C[C@H]1[C@H](OC(=O)CCC(=O)O)O[C@@H]2O[C@@]3(C)CC[C@H]4[C@H](C)CC[C@@H]1[C@@]24OO3` [artesunate]: the “times more potent than artemisinin” value in [14] is 3.2 times. Also, in data set [13] (upto 750 mg), the cure rate is 70-90%. Besides, in [8] (rat, in vivo, po), the Elimination half life was 80.4 ± 1560 min, the “area under plasma concentration time curve” value is reported as 217±34 ngh ml^−1 and the maximum plasma concentration was 208 ± 25 ng/mL. Also, the maximum plasma level in data set [9] (in vivo, po) is 0.12 ± 0.11 µg/mL. For the same compound, in [15], the elimination half-life was 2 to 4 min. Further, the elimination half-life in data set [16] is on record as 27 min. Further, in data set [10] (rat, in vivo, im), the Distribution half life is 9 ± 3.6 min and the Elimination half life was 32.4 ± 8.4 min. The “Time of maximum plasma Concentration” value in data set [10] (rat, in vivo) is reported as 15.0 ± 4.1 min.

For the compound `CO[C@H]1O[C@@H]2O[C@@]3(C)CC[C@H]4[C@H](C)CC[C@@H]([C@H]1C)[C@@]24OO3` [artemether], in data set [8] (oral, rats), the Elimination half life was 122 ± 10.8 min, the “area under plasma concentration time curve” value was 306±52 ngh ml^−1 and the maximum plasma concentration is 381 ± 113 ng/mL. Further, the “maximum plasma concentration by im route” value in [10] (rats) is 692±234. For the same compound, in data set [10] (rats, single IM dose), the “Absorption 0-8 h” value is 54.2±25.9% and 54.3%; the Area under plasma concentration was 1010 ng·h/mL; the Distribution half life was 13.8 min; the Elimination half life was 107 ± 48 min. In [10] (rats, single IM dose), the Mean absorption time was 0.14 h, the “Time of maximum plasma Concentration” value is on record as 28.8 min and the “maximum plasma concentration” value is 692 ng/mL.

In the case of `CCO[C@H]1O[C@@H]2O[C@@]3(C)CC[C@H]4[C@H](C)CC[C@@H]([C@H]1C)[C@@]24OO3` [arteether], in data set [8] (oral, rats), the Elimination half life was 107 ± 28.2 min, the “area under plasma concentration time curve” value was 298±68 ngh ml^−1 and the maximum plasma concentration is 324 ± 10 ng/mL. In addition, in data set [10] (rats), the “maximum plasma concentration by im route” value was 160±12.4. In [10] (rats, single IM dose), the Distribution half life was 20.4 ± 4.2 min, the Mean absorption time is listed as 0.25 ± 0.06 h, the “Time of maximum plasma Concentration” value was 41.4 ± 14.7 min and the “maximum plasma concentration” value is 160.7 ± 12.4 ng/mL. For the same compound, the “Absorption 0-8 h” value in [10] (rats, single IM dose, listed as AE) is given as 34.0±9.6%.
